Results published in PubChem BioAssay AID1963863 (Molecular Pharmacology Branch, DTP, NCI, 2024).

System: 931267-113-T-J1-PDC KRAS spheroid with HUVEC/MSC, viability
Experiment: Anticancer human tumor 931267-113-T-J1-PDC patient-derived colon adenocarcinoma cell line growth inhibition [KRAS2]
Conditions: for IC50: curve of first compound; for viability, T/C: stronger effect = lower value
In short: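 Combination screen of spheroid viability in tumor-cell co-cultures with endothelial (HUVEC) and mesenchymal stem cell stroma. Each agent was tested in half-log dilutions, topping at clinical Cmax or at 10 microM without a known Cmax.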
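Also: compound exposure lasted 7 days before the readout.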
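For viability, T/C in this document: 100% = DMSO vehicle control viability.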

For `CC(C)n1nc(-c2ccc3oc(N)nc3c2)c2c(N)ncnc21` + CNCc1ccccc1-c1csc(C(C)Nc2nc(C)nc3cc(OC)c(OC)cc23)c1, the IC50 (second compound 0.1 µM) was 6.18 nM, the IC50 (second compound 0.316 µM) was 4.24 nM and the IC50 (second compound 1 µM) was 1.01 nM. For the same compound, the IC50 (second compound 3.16 µM) was under 0.316 nM, the IC50 (second compound 10 µM) was under 0.316 nM and the viability, T/C (second compound 0.1 µM, first compound 0.000316 µM) was 87.3%. It also gave a viability, T/C (second compound 0.1 µM, first compound 0.001 µM) of 87.7%, a viability, T/C (second compound 0.1 µM, first compound 0.00316 µM) of 68.4% and a viability, T/C (second compound 0.1 µM, first compound 0.01 µM) of 37.2%. The viability, T/C (second compound 0.1 µM, first compound 0.0316 µM) was 24.2%, the viability, T/C (second compound 0.1 µM, first compound 0.1 µM) was 27.2% and the viability, T/C (second compound 0.316 µM, first compound 0.000316 µM) was 85.6%. It also gave a viability, T/C (second compound 0.316 µM, first compound 0.001 µM) of 67.8%, a viability, T/C (second compound 0.316 µM, first compound 0.00316 µM) of 55.5% and a viability, T/C (second compound 0.316 µM, first compound 0.01 µM) of 38.7%. The viability, T/C (second compound 0.316 µM, first compound 0.0316 µM) was 27.7%, the viability, T/C (second compound 0.316 µM, first compound 0.1 µM) was 19.8% and the viability, T/C (second compound 1 µM, first compound 0.000316 µM) was 51.3%. For the same compound, the viability, T/C (second compound 1 µM, first compound 0.001 µM) was 57.2%, the viability, T/C (second compound 1 µM, first compound 0.00316 µM) was 33.2% and the viability, T/C (second compound 1 µM, first compound 0.01 µM) was 24.1%. It also gave a viability, T/C (second compound 1 µM, first compound 0.0316 µM) of 12.7%, a viability, T/C (second compound 1 µM, first compound 0.1 µM) of 5.59% and a viability, T/C (second compound 3.16 µM, first compound 0.000316 µM) of 0.15%. The viability, T/C (second compound 3.16 µM, first compound 0.001 µM) was 0.12%, the viability, T/C (second compound 3.16 µM, first compound 0.00316 µM) was 0.09% and the viability, T/C (second compound 3.16 µM, first compound 0.01 µM) was 0.08%. It also gave a viability, T/C (second compound 3.16 µM, first compound 0.0316 µM) of 0.07%, a viability, T/C (second compound 3.16 µM, first compound 0.1 µM) of 0.21% and a viability, T/C (second compound 10 µM, first compound 0.000316 µM) of 0.19%. The viability, T/C (second compound 10 µM, first compound 0.001 µM) was 0.81%, the viability, T/C (second compound 10 µM, first compound 0.00316 µM) was 0.23% and the viability, T/C (second compound 10 µM, first compound 0.01 µM) was 0.29%. The viability, T/C (second compound 10 µM, first compound 0.0316 µM) was 0.33% and the viability, T/C (second compound 10 µM, first compound 0.1 µM) was 0.4%.
